These are literature values, as cited in USRE39705E1, “Method of treating glutathione deficient mammals” (Vit-Immune, L.C., priority 1998, dated 2007).

Test in data set [1]: not given
This is another data set of the same source.

On to `N[C@@H](CS)C(=O)O` [Example 1-cysteine, 1-cysteine], for which the GSH levels entry (substituted into the diet in place of the total protein allowance) is on record as “effective in raising GSH levels”.

On to `NC(=O)CC[C@H](N)C(=O)O` [L-glutamine], for which the liver glutathione entry (after lethal hepatic injury) is reported as “preserve liver glutathione”.

Take `N[C@@H](CCC(=O)N[C@@H](CS)C(=O)NCC(=O)O)C(=O)O` [glutathione, γ-L-Glutamyl-L-cysteinylglycine]: in data set [1], the “absorption of oral supplementation by the mammal's cells” value is listed as “not well absorbed”. Further, in data set [1] (oral), the “replenishment of intracellular glutathione losses” value is “does not replenish losses inside cells”.

Turning to `O=C(O)CCCCC1CCSS1` (stereo not drawn) [Alpha lipoic acid, alpha lipoic acid], where the note is “in vitro and in vivo (literature)”, the intracellular reduced glutathione result is reported as “substantial increase”.
